Literature values, collected in US12329899B2, “Dry powder inhaler and methods of use” (Aspeya US Inc., priority 2012, dated 2025).

Legend:
[1] = oral solution of 650 mg, four male subjects
[2] = oral administration, 325 mg
platelet = details: 50 mg/day, some patients; the remainder needed over 50 mg/day
[3] = any dose above 30 mg daily
[4] = 75 mg/day

## CC(=O)Oc1ccccc1C(=O)O [aspirin, acetylsalicylic acid]
[1]
  dose that reached the peripheral circulation intact (AUC oral vs intravenous): 68%
Oral administration
  loss or inactivation of the oral dosage due to the first pass effect in the gut and liver: approximately ⅔
Taken orally
  fraction of the dose bioavailable due to the first pass effect: about one to two-thirds
[2]
  increase of major gastrointestinal and extracranial bleeds: over 50%
platelet
  platelet inhibition: satisfactory platelet inhibition
[3]
  vascular events prevented: 13%
[4]
  gastrointestinal side-effects, bleeding episodes: significant excess of bleeding episodes
[4]; patients with cerebrovascular ischaemic events
  risk of stroke or death: significantly reduces the risk of stroke or death
